According to PubChem BioAssay (NCI):
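Here, GI50 denotes the concentration required for 50% inhibition of growth. The concentration for full growth arrest is given as TGI.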

Experiments:
Assay in all cases: growth of human tumour cells (NCI), 384-well format
HCT-15 colon = system: HCT-15 colon
NCI-H23 lung = system: NCI-H23 lung
COLO 205 colon = system: COLO 205 colon
RXF 393 renal = system: RXF 393 renal
UACC-257 melanoma = system: UACC-257 melanoma
A498 renal = system: A498 renal
SK-OV-3 ovarian = system: SK-OV-3 ovarian
HOP-62 NSCLC = system: HOP-62 NSCLC
T-47D breast = system: T-47D breast
SW-620 colon = system: SW-620 colon
HT29 colon = system: HT29 colon
OVCAR-8 ovarian = system: OVCAR-8 ovarian
SF-268 CNS = system: SF-268 CNS
NCI-H522 lung = system: NCI-H522 lung
RPMI-8226 leukemia = system: RPMI-8226 leukemia
LOX IMVI melanoma = system: LOX IMVI melanoma
SF-295 CNS = system: SF-295 CNS
IGROV1 ovarian = system: IGROV1 ovarian
MDA-MB-435 melanoma = system: MDA-MB-435 melanoma
EKVX NSCLC = system: EKVX NSCLC
OVCAR-5 ovarian = system: OVCAR-5 ovarian
DU-145 prostate = system: DU-145 prostate
PC-3 prostate = system: PC-3 prostate
KM12 colon = system: KM12 colon
NCI-H322M lung = system: NCI-H322M lung
CAKI-1 renal = system: CAKI-1 renal
SK-MEL-28 melanoma = system: SK-MEL-28 melanoma
MDA-MB-468 breast = system: MDA-MB-468 breast
CCRF-CEM leukemia = system: CCRF-CEM leukemia
SN12C renal = system: SN12C renal
HS 578T breast = system: HS 578T breast
MOLT-4 leukemia = system: MOLT-4 leukemia
SR leukemia = system: SR leukemia
SF-539 CNS = system: SF-539 CNS
BT-549 breast = system: BT-549 breast
MALME-3M melanoma = system: MALME-3M melanoma
HL-60(TB) leukemia = system: HL-60(TB) leukemia
HCT-116 colon = system: HCT-116 colon
A549 NSCLC = system: A549 NSCLC
ACHN renal = system: ACHN renal
MDA-MB-231 breast = system: MDA-MB-231 breast
SNB-19 CNS = system: SNB-19 CNS
MCF7 breast = system: MCF7 breast
U251 glioblastoma = system: U251 glioblastoma
SNB-75 CNS = system: SNB-75 CNS
NCI/ADR-RES ovarian = system: NCI/ADR-RES ovarian
HOP-92 NSCLC = system: HOP-92 NSCLC
M14 melanoma = system: M14 melanoma
UACC-62 melanoma = system: UACC-62 melanoma
OVCAR-4 ovarian = system: OVCAR-4 ovarian
TK-10 renal = system: TK-10 renal
786-0 renal = system: 786-0 renal
SK-MEL-5 melanoma = system: SK-MEL-5 melanoma
NCI-H460 NSCLC = system: NCI-H460 NSCLC
SK-MEL-2 melanoma = system: SK-MEL-2 melanoma
HCC-2998 colon = system: HCC-2998 colon
OVCAR-3 ovarian = system: OVCAR-3 ovarian
K-562 leukemia = system: K-562 leukemia

For `COc1cc(F)ccc1-c1ncnc(Nc2cccc(CS(C)(=N)=O)c2)n1` (centres undefined), which GI50 (HCT-15 colon) is on record?
The GI50 was 462 nM.

And the GI50 (NCI-H23 lung)?
Its GI50 is 568 nM.

And the TGI (NCI-H23 lung)?
Its TGI is 2240 nM.

What about the GI50 (COLO 205 colon) of the same compound?
The GI50 was 339 nM.

What about the TGI (COLO 205 colon) of the same compound?
The TGI was 1920 nM.

And the GI50 (RXF 393 renal)?
The GI50 was 228 nM.

And the TGI (RXF 393 renal)?
The TGI was 586 nM.

What about the GI50 (UACC-257 melanoma) of the same compound?
Its GI50 is 1600 nM.

What about the TGI (UACC-257 melanoma) of the same compound?
Its TGI is 3.44 µM.

And the GI50 (A498 renal)?
Its GI50 is 448 nM.

What about the GI50 (SK-OV-3 ovarian) of the same compound?
The GI50 was 2550 nM.

What about the TGI (SK-OV-3 ovarian) of the same compound?
The TGI was 6.68 µM.

And the GI50 (HOP-62 NSCLC)?
The GI50 was 330 nM.

What about the TGI (HOP-62 NSCLC) of the same compound?
The TGI was 1500 nM.

And the GI50 (T-47D breast)?
Its GI50 is 3.01 µM.

What about the TGI (T-47D breast) of the same compound?
Its TGI is greater than 100 µM.

What about the GI50 (SW-620 colon) of the same compound?
Its GI50 is 776 nM.

What about the TGI (SW-620 colon) of the same compound?
The TGI was 4.82 µM.

What about the GI50 (HT29 colon) of the same compound?
Its GI50 is 1400 nM.

What about the TGI (HT29 colon) of the same compound?
Its TGI is 4.15 µM.

What about the GI50 (OVCAR-8 ovarian) of the same compound?
The GI50 was 520 nM.

And the TGI (OVCAR-8 ovarian)?
The TGI was 2610 nM.

And the GI50 (SF-268 CNS)?
Its GI50 is 331 nM.

What about the TGI (SF-268 CNS) of the same compound?
The TGI was 1410 nM.

What about the GI50 (NCI-H522 lung) of the same compound?
Its GI50 is 1770 nM.

And the TGI (NCI-H522 lung)?
Its TGI is 4.12 µM.

What about the GI50 (RPMI-8226 leukemia) of the same compound?
The GI50 was 1700 nM.

And the TGI (RPMI-8226 leukemia)?
Its TGI is 3.08 µM.

What about the GI50 (LOX IMVI melanoma) of the same compound?
The GI50 was 312 nM.

What about the TGI (LOX IMVI melanoma) of the same compound?
Its TGI is 1660 nM.

What about the GI50 (SF-295 CNS) of the same compound?
Its GI50 is 1210 nM.

And the TGI (SF-295 CNS)?
The TGI was 5.07 µM.

What about the GI50 (IGROV1 ovarian) of the same compound?
Its GI50 is 919 nM.

What about the TGI (IGROV1 ovarian) of the same compound?
Its TGI is greater than 100 µM.

What about the GI50 (MDA-MB-435 melanoma) of the same compound?
The GI50 was 1440 nM.

What about the TGI (MDA-MB-435 melanoma) of the same compound?
Its TGI is greater than 19.7 µM.

What about the GI50 (EKVX NSCLC) of the same compound?
Its GI50 is 1280 nM.

What about the TGI (EKVX NSCLC) of the same compound?
Its TGI is 4.28 µM.

What about the GI50 (OVCAR-5 ovarian) of the same compound?
Its GI50 is 316 nM.

And the TGI (OVCAR-5 ovarian)?
Its TGI is greater than 100 µM.

And the GI50 (DU-145 prostate)?
Its GI50 is 402 nM.

What about the TGI (DU-145 prostate) of the same compound?
Its TGI is 3.75 µM.

And the GI50 (PC-3 prostate)?
Its GI50 is 795 nM.

And the TGI (PC-3 prostate)?
Its TGI is 4.96 µM.

And the GI50 (KM12 colon)?
The GI50 was 322 nM.

And the TGI (KM12 colon)?
The TGI was 2120 nM.

What about the GI50 (NCI-H322M lung) of the same compound?
Its GI50 is 384 nM.

What about the TGI (NCI-H322M lung) of the same compound?
The TGI was 2610 nM.

And the GI50 (CAKI-1 renal)?
Its GI50 is 404 nM.

What about the TGI (CAKI-1 renal) of the same compound?
Its TGI is greater than 100 µM.

What about the GI50 (SK-MEL-28 melanoma) of the same compound?
Its GI50 is 572 nM.

And the TGI (SK-MEL-28 melanoma)?
Its TGI is 2360 nM.

And the GI50 (MDA-MB-468 breast)?
The GI50 was 1120 nM.

And the TGI (MDA-MB-468 breast)?
The TGI was 2470 nM.

And the GI50 (CCRF-CEM leukemia)?
The GI50 was 299 nM.

And the TGI (CCRF-CEM leukemia)?
The TGI was 1050 nM.

And the GI50 (SN12C renal)?
The GI50 was 668 nM.

What about the TGI (SN12C renal) of the same compound?
The TGI was 3.52 µM.

And the GI50 (HS 578T breast)?
The GI50 was 465 nM.

What about the TGI (HS 578T breast) of the same compound?
The TGI was 1690 nM.

What about the GI50 (MOLT-4 leukemia) of the same compound?
The GI50 was 506 nM.

And the TGI (MOLT-4 leukemia)?
Its TGI is 1620 nM.

And the GI50 (SR leukemia)?
The GI50 was 39.5 nM.

And the TGI (SR leukemia)?
Its TGI is 112 nM.

And the GI50 (SF-539 CNS)?
The GI50 was 986 nM.

And the TGI (SF-539 CNS)?
Its TGI is 2820 nM.

And the GI50 (BT-549 breast)?
The GI50 was 773 nM.

And the TGI (BT-549 breast)?
The TGI was 2600 nM.

And the GI50 (MALME-3M melanoma)?
The GI50 was 843 nM.

What about the TGI (MALME-3M melanoma) of the same compound?
Its TGI is 2300 nM.

And the GI50 (HL-60(TB) leukemia)?
Its GI50 is 182 nM.

And the TGI (HL-60(TB) leukemia)?
Its TGI is 391 nM.

And the GI50 (HCT-116 colon)?
Its GI50 is 300 nM.

And the TGI (HCT-116 colon)?
Its TGI is greater than 100 µM.

What about the GI50 (A549 NSCLC) of the same compound?
The GI50 was 1610 nM.

What about the TGI (A549 NSCLC) of the same compound?
Its TGI is greater than 100 µM.

And the GI50 (ACHN renal)?
The GI50 was 510 nM.

And the TGI (ACHN renal)?
The TGI was greater than 100 µM.

What about the GI50 (MDA-MB-231 breast) of the same compound?
Its GI50 is 559 nM.

What about the TGI (MDA-MB-231 breast) of the same compound?
Its TGI is 2680 nM.

And the GI50 (SNB-19 CNS)?
Its GI50 is 988 nM.

What about the TGI (SNB-19 CNS) of the same compound?
The TGI was greater than 100 µM.

What about the GI50 (MCF7 breast) of the same compound?
The GI50 was 408 nM.

What about the TGI (MCF7 breast) of the same compound?
The TGI was greater than 100 µM.

What about the GI50 (U251 glioblastoma) of the same compound?
Its GI50 is 872 nM.

What about the TGI (U251 glioblastoma) of the same compound?
Its TGI is greater than 19.9 µM.

What about the GI50 (SNB-75 CNS) of the same compound?
The GI50 was 592 nM.

And the TGI (SNB-75 CNS)?
The TGI was 2180 nM.

And the GI50 (NCI/ADR-RES ovarian)?
Its GI50 is 2580 nM.

And the TGI (NCI/ADR-RES ovarian)?
The TGI was 21.8 µM.

And the GI50 (HOP-92 NSCLC)?
The GI50 was 1700 nM.

What about the TGI (HOP-92 NSCLC) of the same compound?
Its TGI is greater than 23.9 µM.

And the GI50 (M14 melanoma)?
The GI50 was 980 nM.

What about the TGI (M14 melanoma) of the same compound?
The TGI was 3.86 µM.

And the GI50 (UACC-62 melanoma)?
Its GI50 is 240 nM.

And the TGI (UACC-62 melanoma)?
Its TGI is 1080 nM.

What about the GI50 (OVCAR-4 ovarian) of the same compound?
Its GI50 is 1830 nM.

What about the TGI (OVCAR-4 ovarian) of the same compound?
Its TGI is 6.09 µM.

What about the GI50 (TK-10 renal) of the same compound?
Its GI50 is 819 nM.

What about the TGI (TK-10 renal) of the same compound?
The TGI was greater than 100 µM.

And the GI50 ([…]-0 renal)?
Its GI50 is 683 nM.

What about the TGI (786-0 renal) of the same compound?
Its TGI is 3.88 µM.

What about the GI50 (SK-MEL-5 melanoma) of the same compound?
Its GI50 is 455 nM.

What about the TGI (SK-MEL-5 melanoma) of the same compound?
The TGI was 1840 nM.

What about the GI50 (NCI-H460 NSCLC) of the same compound?
Its GI50 is 815 nM.

What about the TGI (NCI-H460 NSCLC) of the same compound?
Its TGI is 3.56 µM.

And the GI50 (SK-MEL-2 melanoma)?
Its GI50 is 1040 nM.

And the TGI (SK-MEL-2 melanoma)?
The TGI was 2460 nM.

What about the GI50 (HCC-2998 colon) of the same compound?
Its GI50 is 1000 nM.

What about the TGI (HCC-2998 colon) of the same compound?
Its TGI is 3.77 µM.

What about the GI50 (OVCAR-3 ovarian) of the same compound?
The GI50 was 384 nM.

What about the TGI (OVCAR-3 ovarian) of the same compound?
Its TGI is 1810 nM.

What about the GI50 (K-562 leukemia) of the same compound?
The GI50 was 2000 nM.

What about the TGI (K-562 leukemia) of the same compound?
The TGI was 15 µM.
